Test [1] concerns senescence accelerated mouse. Conditions: cited from earlier work.
Test [2] concerns normal human skin fibroblast. Briefly: Immunocytological measurement of elastin fiber in fibroblasts with or without SNP. Conditions: DCP-LA 100 nM, FIG. 1. In kind it is cell-based. As for the experimental part: (§1) Normal human fibroblast was purchased from Lonza (Verviers, Belgium). The cells were cultured in FGM™-2 BulletKit™ (Lonza) at 5% CO2 and 95% air under wet atmosphere at 37° C.
In the presence or absence of DCP-LA (100 nM), normal human skin fibroblasts were treated with sodium nitroprusside (SNP) (1 mM). Then, the cells were fixed with methanol at −20° C. for 30 min, and blocked with 2% (w/v) bovine serum albumin-containing phosphate buffered saline (PBS) at room temperature. The cells were reacted with an anti-elastin antibody (1:100) (Millipore, Temecula, Calif., USA) at 4° C. overnight, and then reacted with an Alexa488-conjugated goat anti-mouse IgG antibody (Molecular Probes, Eugene, Oreg., USA) at room temperature for 1 hr. After staining with 4′,6-diamidino-2-phenylindole (DAPI), the fluorescence-labeled cells were visualized with a confocal scanning laser microscope (Axiovert/LSM510; Carl Zeiss, Oberkochen, Germany). The fluorescence signal intensity of the elastin fiber was analyzed using ImageJ (Bethesda, Md., USA). The intensity of the elastin fiber was standardized by the intensity of DAPI.

A further test deals with fibrin-5. Briefly: Western blotting of fibrin-5 secreted into culture medium. Format: cell-based, human. Conditions: DCP-LA 100 nM, 0-24 hr, FIG. 3. As for the experimental part:
as §1
The cultured normal human skin fibroblast was treated with DCP-LA (100 nM) for 0-24 hr, and the culture medium was recovered. After precipitation with 5% (w/v) trichloroacetic acid, protein was separated by sodium dodecyl sulfate-polyacrylamide electrophoresis (SDS-PAGE) using TGX gel (BioRad, Hercules, Calif., USA) and transferred on a polyvinylidene difluoride membrane. The blotting membrane was blocked with TBS-T [150 mM NaCl, 0.1% (v/v) Tween20 and 20 mM Tris, pH 7.5] containing 5% (w/v) BSA, and reacted with anti-fibrin-5 antibody (Sigma, St Louis, Mo., USA). After washing, the membrane was reacted with horseradish peroxidase-conjugated goat anti-rabbit IgG antibody. The immune reactivity was detected by ECL kit (GE Healthcare, Piscataway, N.J., USA), and visualized using a chemiluminescence detection system (GE Healthcare). The protein concentration of each sample was measured using a BCA protein assay kit (Thermo Fisher Scientific, Waltham, Mass., USA).
In general terms: Immunoblotting shows a protein as a band on a membrane.

The next test has as its system nerve cell. To be noted: cited from earlier work.
The next test relates to hippocampus nerve cells. Conditions: cited from earlier work.
A further test has as its system HR-1 hairless mice. Briefly: Immunohistological measurement of elastin fiber in UV-irradiated mouse back skin. In kind it is in vivo. To be noted: DCP-LA 1 mg/ml in PEG applied to back skin once per day, UV for 2 weeks, FIG. 2. As for the experimental part: Male HR-1 hairless mice (7- to 8-week-old) were purchased from Japan SLC. Inc. (Shizuoka, Japan). The mice were reared in a chamber at controlled temperature in a cycle of 12 hr light conditions/12 hr dark conditions.
The mice were transferred to a special cage provided with a UV light on the roof and reared therein. UV light was continuously irradiated on the back skin at a distance of 12 cm for the whole 2 weeks.
During UV irradiation, DCP-LA (1 mg/ml) diluted with polyethylene glycol (PEG) was applied to the skin of the back of the mouse once per day.
The mice were sacrificed, a skin block was mounted on OTC (optimal cutting temperature compound), and cut out in about 10 μm thickness by a cryostat. A section was blocked with 5% (v/v) goat serum in PBS-Triton X-100 for 1 hr. Then, the section was incubated with an anti-elastin mouse monoclonal antibody (1:2000) (Millipore), which is the primary antibody, at 4° C. overnight, and then incubated with a goat anti-mouse IgG antibody (1:500) (Invitrogen, Carlsbad, Calif., USA) which is the secondary antibody, for 1 hr at room temperature. After staining with DAPI, the section was visualized with a confocal scanning laser microscope (Axiovert/LSM510; Carl Zeiss). The fluorescence signal intensity of the elastin fiber was quantified by NIH image. The intensity of the elastin fiber was standardized by the intensity of DAPI.

Test [3] deals with α7 nicotinic acetylcholine receptor (Homo sapiens, UniProt P36544). To be noted: α7 nicotinic acetylcholine receptor expressed in glutamatergic presynaptic cell as target; cited from earlier work.
α7 nicotinic acetylcholine receptor, sequence (P36544 23-502): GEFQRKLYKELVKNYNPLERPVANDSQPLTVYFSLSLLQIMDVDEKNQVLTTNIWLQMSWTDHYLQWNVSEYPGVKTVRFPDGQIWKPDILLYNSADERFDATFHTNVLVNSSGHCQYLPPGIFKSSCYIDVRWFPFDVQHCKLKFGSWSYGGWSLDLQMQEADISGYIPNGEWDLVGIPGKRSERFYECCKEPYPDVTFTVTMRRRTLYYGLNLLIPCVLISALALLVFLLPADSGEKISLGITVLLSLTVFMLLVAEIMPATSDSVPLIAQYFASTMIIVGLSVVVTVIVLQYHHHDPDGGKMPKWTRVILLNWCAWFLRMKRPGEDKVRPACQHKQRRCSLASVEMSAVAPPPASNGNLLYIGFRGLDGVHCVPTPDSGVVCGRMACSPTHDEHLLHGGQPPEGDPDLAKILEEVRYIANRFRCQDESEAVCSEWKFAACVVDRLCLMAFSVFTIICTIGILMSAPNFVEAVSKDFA
The subject of test [4] is amyloid β peptide or scopolamine-treated rat. To be noted: cited from earlier work.
A further test deals with T1, PKC-ε (Homo sapiens, UniProt Q02156).
T1 sequence (Q02156 1-737): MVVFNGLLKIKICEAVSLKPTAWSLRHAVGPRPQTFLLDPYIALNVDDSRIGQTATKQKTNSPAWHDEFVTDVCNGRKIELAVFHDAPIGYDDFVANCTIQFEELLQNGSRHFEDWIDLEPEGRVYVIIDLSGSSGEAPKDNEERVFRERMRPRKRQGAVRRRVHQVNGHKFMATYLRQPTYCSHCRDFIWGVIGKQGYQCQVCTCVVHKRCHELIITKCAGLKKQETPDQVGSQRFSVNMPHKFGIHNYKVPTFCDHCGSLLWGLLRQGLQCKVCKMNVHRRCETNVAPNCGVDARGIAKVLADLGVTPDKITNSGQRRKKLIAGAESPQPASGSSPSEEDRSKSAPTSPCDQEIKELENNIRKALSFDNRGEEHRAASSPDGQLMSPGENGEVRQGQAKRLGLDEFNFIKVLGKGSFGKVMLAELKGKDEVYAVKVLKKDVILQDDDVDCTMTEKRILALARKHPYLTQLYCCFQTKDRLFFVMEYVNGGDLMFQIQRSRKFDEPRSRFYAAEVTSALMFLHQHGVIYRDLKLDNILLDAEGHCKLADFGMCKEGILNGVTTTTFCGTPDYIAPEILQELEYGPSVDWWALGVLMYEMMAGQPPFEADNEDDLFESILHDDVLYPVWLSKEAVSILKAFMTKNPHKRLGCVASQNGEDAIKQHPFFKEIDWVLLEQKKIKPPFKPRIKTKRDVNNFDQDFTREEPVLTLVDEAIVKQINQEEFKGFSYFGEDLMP
Conditions: cited from earlier work.

In the case of `CCCCCC1CC1CC1CC1CCCCCCCC(=O)O` (stereo not shown) [DCP-LA, 8-[2-(2-Pentyl-cyclopropylmethyl)-cyclopropyl]-octanoic acid], the cognitive dysfunction entry in test [1] is reported as “improves cognitive dysfunction of senescence accelerated mouse”; in test [4], “improves cognitive dysfunction of amyloid β peptide or scopolamine-treated rat”. The “regeneration against elastin degeneration induced by NO stress (relative density of elastin fiber relative to DAPI)” value in test [2] (SNP 1 mM for 12 hr) is reported as “promote regeneration against elastin degeneration induced by NO stress”. The “elastin synthesis (relative density of elastin fiber relative to the DAPI density)” value in [2] (untreated with SNP) is “promote elastin synthesis”. Moreover, in the test on fibrin-5, the “secretion amount of fibrin-5” value is given as “increased the secretion amount of fibrin-5”. The “nerve cell death induced by oxidative stress” value with nerve cell was “suppress nerve cell death induced by oxidative stress”. In the test with hippocampus nerve cells, the “release of γ aminobutyric acid” value is reported as “increases release of γ aminobutyric acid from hippocampus nerve cells”. Further, the “protection against elastin disorder caused by UV irradiation (relative density of elastin fiber relative to DAPI)” value with HR-1 hairless mice is given as “protecting action against elastin disorder (elastin deterioration) caused by UV irradiation”. In addition, the hippocampal synaptic transmission result in [3] is recorded as “promotes hippocampal synaptic transmission”. Besides, the PKC-ε activation result on PKC-ε is “activates PKC-ε selectively and directly”.

Source of the values: US9987208B2, “Elastin synthesis/regeneration promoting agent” (NISHIZAKI BIOINFORMATION RESEARCH INSTITUTE, priority 2013, dated 2018).
